ChEMBL document CHEMBL4673314, “Stabilization Strategies for Linear Minigastrin Analogues: Further Improvements via the Inclusion of Proline into the Peptide Sequence” (J Med Chem, 2020)
Non-standard residues stand in square brackets, D forms with d. Residues, ends and D or L forms follow the SMILES beside them. *: point of attachment. DOTA = O=C(O)CN1CCN(CC(=O)O)CCN(CC(=O)*)CCN(CC(=O)O)CC1; 1Nal = N[C@@H](Cc1cccc2ccccc12)C(=O)O; NMeNle = CCCC[C@H](NC)C(=O)O

assay: Retention time of the compound by HPLC method; format: physicochemical

Row | Compound | Retention_time [min]
1 | CCCC[C@@H](C(=O)N[C@@H](CC(=O)O)C(=O)N[C@@H](Cc1cccc2ccccc12)C(N)=O)N(C)C(=O)[C@H](Cc1c[nH]c2ccccc12)NC(=O)[C@@H]1CCCN1C(=O)[C@H](Cc1ccc(O)cc1)NC(=O)[C@H](C)NC(=O)[C@@H](CCC(=O)O)NC(=O)CN1CCN(CC(=O)O)CCN(CC(=O)O)CCN(CC(=O)O)CC1 ({DOTA}-[dE]AYPW[NMeNle]D[1Nal]-NH2) | 16.8
2 | CCCC[C@@H](C(=O)N[C@@H](CC(=O)O)C(=O)N[C@@H](Cc1cccc2ccccc12)C(N)=O)N(C)C(=O)[C@H](Cc1c[nH]c2ccccc12)NC(=O)CNC(=O)[C@H](Cc1ccc(O)cc1)NC(=O)[C@@H]1CCCN1C(=O)[C@@H](CCC(=O)O)NC(=O)CN1CCN(CC(=O)O)CCN(CC(=O)O)CCN(CC(=O)O)CC1 ({DOTA}-[dE]PYGW[NMeNle]D[1Nal]-NH2) | 16.9
3 | CCCC[C@@H](C(=O)N[C@@H](CC(=O)O)C(=O)N[C@@H](Cc1cccc2ccccc12)C(N)=O)N(C)C(=O)[C@H](Cc1c[nH]c2ccccc12)NC(=O)CNC(=O)[C@@H]1CCCN1C(=O)[C@H](Cc1ccc(O)cc1)NC(=O)[C@@H](CCC(=O)O)NC(=O)CN1CCN(CC(=O)O)CCN(CC(=O)O)CCN(CC(=O)O)CC1 ({DOTA}-[dE]YPGW[NMeNle]D[1Nal]-NH2) | 16.9
